In patent US4435385A, “N-Acyl-polypeptides and processes for the production thereof” (Sandoz Ltd., priority 1981, dated 1984):

System: gastric secretion
Test: TEST II: pentagastrin-stimulated gastric secretion in pylorus-ligated rats
Type: in vivo, rat
Conditions: male rats, i.m., 100 μg/kg pentagastrin s.c., 30 mins; dose for 50% inhibition vs untreated controls
Experimental: Male rats (220-280 g) are kept in the laboratory in individual cages for several days (14 hours light/day) with 48 hours fasting (but free access to water) immediately prior to the experiment. At the start of the experiment the pylorus is ligated under ether anaesthesia and 100 μg/kg pentagastrin are injected s.c. to stimulate gastric secretion. The test compounds are injected simultaneously i.m. 30 mins. later the animals are sacrificed, the volume of gastric juice measured and the acid concentration estimated (titration with thymol blue). The acid output is calculated and the percent inhibition estimated in relation to untreated controls.

For `C[C@H](N)C(=O)NCC(=O)N[C@H]1CSSC[C@@H](C(=O)O)NC(=O)[C@H](CO)NC(=O)[C@H]([C@@H](C)O)NC(=O)[C@H](Cc2ccccc2)NC(=O)[C@H]([C@@H](C)O)NC(=O)[C@H](CCCCN)NC(=O)[C@H](Cc2c[nH]c3ccccc23)NC(=O)[C@H](Cc2ccccc2)NC(=O)[C@H](Cc2ccccc2)NC(=O)[C@H](CC(N)=O)NC(=O)[C@H](CCCCN)NC1=O` [somatostatin], the “ID50 in TEST II for acid concentration” value was 0.035 mg/kg.
